Results: BigSolDB 2.1

C[C@H]1[C@H](OC(=O)CCC(=O)O)O[C@@H]2O[C@@]3(C)CC[C@H]4[C@H](C)CC[C@@H]1[C@@]24OO3
solubility (mole fraction)
Conditions | 278.15 K | 283.15 K | 288.15 K | 293.15 K | 298.15 K | 303.15 K | 308.15 K | 313.15 K | 318.15 K
in ethanol | 0.00528 | 0.00575 | 0.00636 | 0.00709 | 0.00782 | 0.00854 | 0.00939 | 0.0102 | 0.0111
in isopropanol | 0.00285 | 0.00336 | 0.00392 | 0.00461 | 0.00527 | 0.00609 | 0.00698 | 0.00796 | 0.00898
in methanol | 0.00497 | 0.00538 | 0.00606 | 0.00677 | 0.00747 | 0.00817 | 0.00906 | 0.00994 | 0.0108
in propylene glycol | 0.001 | 0.00123 | 0.00148 | 0.00176 | 0.00205 | 0.00237 | 0.00279 | 0.0032 | 0.00366
in water | 9.48e-06 | 1.28e-05 | 1.66e-05 | 2.16e-05 | 2.71e-05 | 3.51e-05 | 4.44e-05 | 5.54e-05 | 6.94e-05
